Here are results for 27 molecules from patent publication US8648066B2 (Exelixis, Inc., priority 2009, dated 2014).

Values joined by “and” are separate entries in the source; they are usually repeats but may differ in a detail not shown here. Identical values can stand only once.

In general, IC50 refers to the concentration at which inhibition is half-maximal.

For this assay, the target named is mTOR/GbL/Raptor (mTORC1) (Homo sapiens, UniProt P42345). Briefly: mTOR/GbL/Raptor (mTORC1) ELISA assay. It counts as biochemical. Conditions: phosphorylation of 4E-BP1; 0.2 nM mTORC1, 10 μM ATP; read-out: IC50 in this assay (mTORC1 ELISA). The method in brief: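 ELISA read-out: phospho-4E-BP1 captured on Ni-chelate plates and detected with anti-phospho antibody plus HRP-anti-IgG luminescence. The kinase step ran 120 min at ambient temperature with 0.2 nM human mTORC1, 10 µM ATP, 50 nM His-4E-BP1, 10 mM MnCl2, pH 7.2 HEPES.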
Take `CCN(C)Cc1nc2c(c(N3CCOc4ccc(-c5cnc6nc(C)[nH]c6c5)cc4C3)n1)CC(C)(C)CC2` [Example 605, N-({6,6-dimethyl-4-[7-(2-methyl-1H-imidazo[4,5-b]pyridin-6-yl)-2,3-dihydro-1,4-benzoxazepin-4(5H)-yl]-5,6,7,8-tetrahydroquinazolin-2-yl}methyl)-N-methylethanamine]: the IC50 was not above 10 nM.
Regarding `Cc1nc2ncc(-c3ccc4c(c3)CN(c3nc(CN(C)C(C)C)nc5c3CC(C)(C)CC5)CCO4)cc2[nH]1` [Example 606, N-({6,6-dimethyl-4-[7-(2-methyl-1H-imidazo[4,5-b]pyridin-6-yl)-2,3-dihydro-1,4-benzoxazepin-4(5H)-yl]-5,6,7,8-tetrahydroquinazolin-2-yl}methyl)-N-methylpropan-2-amine], the IC50 was in the range of 10 to 50 nM.
For `Cc1nc2ncc(-c3ccc4c(c3)CN(c3nc(CNC(C)C)nc5c3CC(C)(C)CC5)CCO4)cc2[nH]1` [Example 607, N-({6,6-dimethyl-4-[7-(2-methyl-1H-imidazo[4,5-b]pyridin-6-yl)-2,3-dihydro-1,4-benzoxazepin-4(5H)-yl]-5,6,7,8-tetrahydroquinazolin-2-yl}methyl)propan-2-amine], the IC50 was not above 10 nM.
With `COc1ccc2c(N3CCOc4ccc(-c5cnc(Cl)c(NS(C)(=O)=O)c5)cc4C3)ncnc2c1` [Example 608, N-(2-chloro-5-{4-[7-(methyloxy)quinazolin-4-yl]-2,3,4,5-tetrahydro-1,4-benzoxazepin-7-yl}pyridin-3-yl)methanesulfonamide], the IC50 lay within 10 to 50 nM.
Take `COc1ccc2c(N3CCOc4ccc(-c5ccc(NC(C)=O)cc5)cc4C3)nc(C)nc2c1` [Example 609, N-(4-{4-[2-methyl-7-(methyloxy)quinazolin-4-yl]-2,3,4,5-tetrahydro-1,4-benzoxazepin-7-yl}phenyl)acetamide]: the IC50 was not below 2000 nM.
For `CNc1ncnc(N2CCOc3ccc(-c4cnc5nc(C)[nH]c5c4)cc3C2)c1C` [Example 610, N,5-dimethyl-6-[7-(2-methyl-1H-imidazo[4,5-b]pyridin-6-yl)-2,3-dihydro-1,4-benzoxazepin-4(5H)-yl]pyrimidin-4-amine] the value was 250 to 1000 nM; for `Cc1nc2cc(-c3ccc4c(c3)CN(c3nc(CN(C)C)ncc3C(C)C)CCO4)ccc2[nH]1` [Example 612, N,N-dimethyl-1-{4-[7-(2-methyl-1H-benzimidazol-5-yl)-2,3-dihydro-1,4-benzoxazepin-4(5H)-yl]-5-(1-methylethyl)pyrimidin-2-yl}methanamine], 50 to 250 nM.
For `COc1ccc2c(N3CCOc4ccc(-c5cnc6nc(C)[nH]c6c5)cc4C3)nc(CN(C)C)nc2c1` [Example 613, N,N-dimethyl-1-{4-[7-(2-methyl-1H-imidazo[4,5-b]pyridin-6-yl)-2,3-dihydro-1,4-benzoxazepin-4(5H)-yl]-7-(methyloxy)quinazolin-2-yl}methanamine] the value was 250 to 1000 nM; for `Cc1nc2cc(-c3ccc4c(c3)CN(c3nc(CN(C)C)nc(C)c3C(C)C)CCO4)cnc2[nH]1` [Example 614, N,N-dimethyl-1-{4-methyl-5-(1-methylethyl)-6-[7-(2-methyl-3H-imidazo[4,5-b]pyridin-6-yl)-2,3-dihydro-1,4-benzoxazepin-4(5H)-yl]pyrimidin-2-yl}methanamine], 10 to 50 nM; for `CN(C)Cc1nc2c(c(N3CCOc4ccc(-c5cnc(Cl)c(NS(C)(=O)=O)c5)cc4C3)n1)CC(C)(C)CC2` [Example 616, N-[2-chloro-5-(4-{2-[(dimethylamino)methyl]-6,6-dimethyl-5,6,7,8-tetrahydroquinazolin-4-yl}-2,3,4,5-tetrahydro-1,4-benzoxazepin-7-yl)puyridin-3-yl]methanesulfonamide], 50 to 250 nM.
For `CC(=O)Nc1nc2cc(-c3ccc4c(c3)CN(c3nc(CN(C)C)nc5c3CC(C)(C)CC5)CCO4)cnc2s1` [Example 617, N-[6-(4-{2-[(dimethylamino)methyl]-6,6-dimethyl-5,6,7,8-tetrahydroquinazolin-4-yl}-2,3,4,5-tetrahydro-1,4-benzoxazepin-7-yl)[1,3]thiazolo[5,4-b]pyridin-2-yl]acetamide] the value was 10 to 50 nM and 50 to 250 nM; for `COc1ccc2c(N3CCOc4ccc(-c5cnc6sc(NC(C)=O)nc6c5)cc4C3)nc(CN(C)C)nc2c1` [Example 618, N-[6-(4-{2-[(dimethylamino)methyl]-7-(methyloxy)quinazolin-4-yl}-2,3,4,5-tetrahydro-1,4-benzoxazepin-7-yl)[1,3]thiazolo[5,4-b]pyridin-2-yl]acetamide], 250 to 1000 nM.
On to `CN(C)c1ncc(-c2ccc3c(c2)CN(c2ncnc4c2CC(C)(C)CC4)CCO3)cc1NS(C)(=O)=O` [Example 619, N-{2-(dimethylamino)-5-[4-(6,6-dimethyl-5,6,7,8-tetrahydroquinazolin-4-yl)-2,3,4,5-tetrahydro-1,4-benzoxazepin-7-yl]pyridin-3-yl}methanesulfonamide], for which the IC50 was 10 to 50 nM.
As to `CC1(C)CCc2ncnc(N3CCOc4ccc(-c5cnc(N)c(NS(C)(=O)=O)c5)cc4C3)c2C1` [Example 620, N-{2-amino-5-[4-(6,6-dimethyl-5,6,7,8-tetrahydroquinazolin-4-yl)-2,3,4,5-tetrahydro-1,4-benzoxazepin-7-yl]pyridin-3-yl}methanesulfonamide], the IC50 is 50 to 250 nM.
As for `CC1(C)CCc2ncnc(N3CCOc4ccc(-c5ccc(Cl)c(NS(C)(=O)=O)c5)cc4C3)c2C1` [Example 621], the IC50 fell in the range of 250 to 1000 nM.
As to `CC1(C)CCc2ncnc(N3CCOc4ccc(-c5cnc(Cl)c(NS(C)(=O)=O)c5)cc4C3)c2C1` [Example 623, N-{2-chloro-5-[4-(6,6-dimethyl-5,6,7,8-tetrahydroquinazolin-4-yl)-2,3,4,5-tetrahydro-1,4-benzoxazepin-7-yl]pyridin-3-yl}methanesulfonamide], the IC50 lay in the range of 10 to 50 nM.
The result for `CN(c1cc(-c2ccc3c(c2)CN(c2ncnc4c2CC(C)(C)CC4)CCO3)cnc1Cl)S(C)(=O)=O` [Example 624, N-{2-chloro-5-[4-(6,6-dimethyl-5,6,7,8-tetrahydroquinazolin-4-yl)-2,3,4,5-tetrahydro-1,4-benzoxazepin-7-yl]pyridin-3-yl}-N-methylmethanesulfonamide] reads 250 to 1000 nM; that for `CC1(C)CCc2ncnc(N3CCOc4ccc(-c5cnc(C#N)c(NS(C)(=O)=O)c5)cc4C3)c2C1` [Example 625, N-{2-cyano-5-[4-(6,6-dimethyl-5,6,7,8-tetrahydroquinazolin-4-yl)-2,3,4,5-tetrahydro-1,4-benzoxazepin-7-yl]pyridin-3-yl}methanesulfonamide], 50 to 250 nM.
For the molecule `CCOc1ncc(-c2ccc3c(c2)CN(c2ncnc4c2CC(C)(C)CC4)CCO3)cc1NS(C)(=O)=O` [Example 626, N-{5-[4-(6,6-dimethyl-5,6,7,8-tetrahydroquinazolin-4-yl)-2,3,4,5-tetrahydro-1,4-benzoxazepin-7-yl]-2-(ethyloxy)pyridin-3-yl}methanesulfonamide], the IC50 fell in the range of 10 to 50 nM.
In the case of `CNc1ncc(-c2ccc3c(c2)CN(c2ncnc4c2CC(C)(C)CC4)CCO3)cc1NS(C)(=O)=O` [Example 627, N-{5-[4-(6,6-dimethyl-5,6,7,8-tetrahydroquinazolin-4-yl)-2,3,4,5-tetrahydro-1,4-benzoxazepin-7-yl]-2-(methylamino)pyridin-3-yl}methanesulfonamide], the IC50 was 50 to 250 nM.
On to `COc1ncc(-c2ccc3c(c2)CN(c2ncnc4c2CC(C)(C)CC4)CCO3)cc1NS(C)(=O)=O` [Example 628, N-{5-[4-(6,6-dimethyl-5,6,7,8-tetrahydroquinazolin-4-yl)-2,3,4,5-tetrahydro-1,4-benzoxazepin-7-yl]-2-(methyloxy)pyridin-3-yl}methanesulfonamide], for which the IC50 was in the range of 10 to 50 nM.
Regarding `CC1(C)CCc2ncnc(N3CCOc4ccc(-c5cnc(Nc6ccccc6)c(NS(C)(=O)=O)c5)cc4C3)c2C1` [Example 629, N-{5-[4-(6,6-dimethyl-5,6,7,8-tetrahydroquinazolin-4-yl)-2,3,4,5-tetrahydro-1,4-benzoxazepin-7-yl]-2-(phenylamino)pyridin-3-yl}methanesulfonamide], the IC50 is 250 to 1000 nM.
Consider `CC1(C)CCc2ncnc(N3CCOc4ccc(-c5cnc(OCc6ccccc6)c(NS(C)(=O)=O)c5)cc4C3)c2C1` [Example 631, N-{5-[4-(6,6-dimethyl-5,6,7,8-tetrahydroquinazolin-4-yl)-2,3,4,5-tetrahydro-1,4-benzoxazepin-7-yl]-2-[(phenylmethyl)oxy]pyridin-3-yl}methanesulfonamide], for which the IC50 was not below 2000 nM.
For `CC1(C)CCc2ncnc(N3CCOc4ccc(-c5cnc(F)c(NS(C)(=O)=O)c5)cc4C3)c2C1` [Example 632, N-{5-[4-(6,6-dimethyl-5,6,7,8-tetrahydroquinazolin-4-yl)-2,3,4,5-tetrahydro-1,4-benzoxazepin-7-yl]-2-fluoropyridin-3-yl}methanesulfonamide], the IC50 was in the range of 250 to 1000 nM.
For the molecule `Cc1ncc(-c2ccc3c(c2)CN(c2ncnc4c2CC(C)(C)CC4)CCO3)cc1NS(C)(=O)=O` [Example 633, N-{5-[4-(6,6-dimethyl-5,6,7,8-tetrahydroquinazolin-4-yl)-2,3,4,5-tetrahydro-1,4-benzoxazepin-7-yl]-2-methylpyridin-3-yl}methanesulfonamide], the IC50 was in the range of 50 to 250 nM.
In the case of `CC1(C)CCc2ncnc(N3CCOc4ccc(-c5cncc(NS(C)(=O)=O)c5)cc4C3)c2C1` [Example 634, N-{5-[4-(6,6-dimethyl-5,6,7,8-tetrahydroquinazolin-4-yl)-2,3,4,5-tetrahydro-1,4-benzoxazepin-7-yl]pyridin-3-yl}methanesulfonamide], the IC50 lay in the range of 250 to 1000 nM.
For `CNCCN(C)c1ncnc(N2CCOc3ccc(-c4cnc5nc(C6CC6)[nH]c5c4)cc3C2)c1C` [Example 635, N-{6-[7-(2-cyclopropyl-1H-imidazo[4,5-b]pyridin-6-yl)-2,3-dihydro-1,4-benzoxazepin-4(5H)-yl]-5-methylpyrimidin-4-yl}-N,N′-dimethylethane-1,2-diamine], the IC50 lay in the range of 250 to 1000 nM.
